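The compound was tested at five concentrations on cells cultured in 96-well plates, with a 48-hour exposure period. At the GI50, growth is halved.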 Activity calls are given as the source filed them. Rule as the data show it: active = GI50 up to about 1.1 µM and inactive = higher.
Columns and labels:
Assay in all cases: NCI-60 cell line screen, 48 h
EKVX = test system: EKVX
KM12 = test system: KM12
NCI-H23 = test system: NCI-H23
SF-295 = test system: SF-295
SR = test system: SR
LOX IMVI = test system: LOX IMVI
MOLT-4 = test system: MOLT-4
786-0 = test system: 786-0
SN12C = test system: SN12C
SW-620 = test system: SW-620
K562 = test system: K562
HL-60 = test system: HL-60
SK-OV-3 = test system: SK-OV-3
TK-10 = test system: TK-10
SK-MEL-28 = test system: SK-MEL-28
IGROV-1 = test system: IGROV-1
A498 = test system: A498
MDA-N = test system: MDA-N
RPMI-8226 = test system: RPMI-8226
HCT-15 = test system: HCT-15
ACHN = test system: ACHN
NCI/ADR-RES = test system: NCI/ADR-RES
SK-MEL-5 = test system: SK-MEL-5
OVCAR-8 = test system: OVCAR-8
COLO 205 = test system: COLO 205
HCT-116 = test system: HCT-116
PC-3 = test system: PC-3
SNB-75 = test system: SNB-75
DU-145 = test system: DU-145
OVCAR-4 = test system: OVCAR-4
HCC 2998 = test system: HCC 2998
T47D = test system: T47D
UO-31 = test system: UO-31
SK-MEL-2 = test system: SK-MEL-2
HOP-62 = test system: HOP-62
UACC-62 = test system: UACC-62
NCI-H460 = test system: NCI-H460
MCF7 = test system: MCF7
RXF 393 = test system: RXF 393
CCRF-CEM = test system: CCRF-CEM
BT-549 = test system: BT-549
MDA-MB-435 = test system: MDA-MB-435
UACC-257 = test system: UACC-257
M14 = test system: M14
CAKI-1 = test system: CAKI-1
NCI-H226 = test system: NCI-H226
U-251 = test system: U-251
SNB-19 = test system: SNB-19
OVCAR-5 = test system: OVCAR-5
HOP-92 = test system: HOP-92
OVCAR-3 = test system: OVCAR-3
A549 = test system: A549

For `CC1(C)C2CCC(N)(C2)C1N` (configuration not stated), the GI50 (EKVX) was > 100 µM (inactive), the GI50 (KM12) was > 100 µM (inactive) and the GI50 (NCI-H23) was > 100 µM (inactive). The GI50 (SF-295) was > 100 µM (inactive), the GI50 (SR) was > 100 µM (inactive) and the GI50 (LOX IMVI) was > 100 µM (inactive). The GI50 (MOLT-4) was > 100 µM (inactive), the GI50 (786-0) was > 100 µM (inactive) and the GI50 (SN12C) was > 100 µM (inactive). The GI50 (SW-620) was > 100 µM (inactive), the GI50 (K562) was > 100 µM (inactive) and the GI50 (HL-60) was 22.3 µM (inactive). The GI50 (SK-OV-3) was > 100 µM (inactive), the GI50 (TK-10) was > 100 µM (inactive) and the GI50 (SK-MEL-28) was > 100 µM (inactive). For the same molecule, the GI50 (IGROV-1) was > 100 µM (inactive), the GI50 (A498) was > 100 µM (inactive) and the GI50 (MDA-N) was > 100 µM (inactive). For the same molecule, the GI50 (RPMI-8226) was > 100 µM (inactive), the GI50 (HCT-15) was greater than 100 µM and the GI50 (ACHN) was > 100 µM (inactive). The GI50 (NCI/ADR-RES) was > 100 µM (inactive), the GI50 (SK-MEL-5) was > 100 µM (inactive) and the GI50 (OVCAR-8) was > 100 µM (inactive). For the same molecule, the GI50 (COLO 205) was > 100 µM (inactive), the GI50 (HCT-116) was > 100 µM (inactive) and the GI50 (PC-3) was > 100 µM (inactive). The GI50 (SNB-75) was > 100 µM (inactive), the GI50 (DU-145) was > 100 µM (inactive) and the GI50 (OVCAR-4) was > 100 µM (inactive). The GI50 (HCC 2998) was > 100 µM (inactive), the GI50 (T47D) was > 100 µM (inactive) and the GI50 (UO-31) was > 100 µM (inactive). For the same molecule, the GI50 (SK-MEL-2) was > 100 µM (inactive), the GI50 (HOP-62) was > 100 µM (inactive) and the GI50 (UACC-62) was > 100 µM (inactive). The GI50 (NCI-H460) was > 100 µM (inactive), the GI50 (MCF7) was > 100 µM (inactive) and the GI50 (RXF 393) was > 100 µM (inactive). The GI50 (CCRF-CEM) was > 100 µM (inactive), the GI50 (BT-549) was > 100 µM (inactive) and the GI50 (MDA-MB-435) was > 100 µM (inactive). For the same molecule, the GI50 (UACC-257) was > 100 µM (inactive), the GI50 (M14) was > 100 µM (inactive) and the GI50 (CAKI-1) was > 100 µM (inactive). For the same molecule, the GI50 (NCI-H226) was > 100 µM (inactive), the GI50 (U-251) was > 100 µM (inactive) and the GI50 (SNB-19) was > 100 µM (inactive). The GI50 (OVCAR-5) was > 100 µM (inactive), the GI50 (HOP-92) was 21.1 µM (inactive) and the GI50 (OVCAR-3) was > 100 µM (inactive). For the same molecule, the GI50 (A549) was > 100 µM (inactive).
